{
  "source": "patent US11447742B2",
  "about": "“Compositions and methods for activation and overexpression of secondary metabolites in microorganisms” (Prospective Research, Inc., priority 2016, dated 2022)",
  "key": {"S. coelicolor [1]": {"tested_on": "S. coelicolor", "assay": "Large scale S. coelicolor fermentation with GBL, extract fractionation and LC-MS identification of induced secondary metabolites", "type": "cell-based, Streptomyces coelicolor", "details": "S. coelicolor 300 mL cultures in SMM, 100 μM GBL; for Desferrioxamine B production / Desferrioxamine E production / streptorubin B production / undecylprodigiosin production: 5 days; for Desferrioxamine B production: fraction 28, peak at 1.81, versus untreated control; for Desferrioxamine E production: fraction 28, peak at 2.09, versus untreated control; for streptorubin B production: fraction 41, peak at 3.6, versus untreated control; for undecylprodigiosin production: fraction 41, peak at 3.8, versus untreated control", "description": "Yields of both known and unknown bioactive compounds regulated by the presence of signaling hormones are improved by contacting producing cells with an appropriate GBL. Secondary metabolites were isolated from cultures of cells. Triplicate 300 mL cultures of S. coelicolor in SMM, was treated with the synthetic racemic mixture of VB-D and seven enantiomers of the non-cognate GBL shown in FIG. 10, at a total concentration of 100 μM, and an identical culture was grown without GBL. Cells were grown for five days at 29 C shaking at 220 rpm. Triplicates were pooled with GBL-treated and control cultures pooled separately.\nA slurry of absorbent resins HP-20, XAD-16, XAD-7 and XAD-4 was added (2-4% weight/volume) and shaking was continued overnight. The resin and cell mass were removed by filtration and were washed three times with 200 mL deionized water. Resin and cell mass were extracted three times with 100-300 mL methanol to elute secondary metabolites from the resin. This extract was concentrated by rotary evaporation to remove extraction solvent.\nThe crude extract was dissolved in 1-3 mL of dimethylsulfoxide (DMSO) and was injected into a reveleris C18 reverse phase column on a Gilson High-Pressure Liquid Chromatography system. A flow rate of 15 ml/min was run for 40 minutes using mobile phases of methanol with 0.1% formic acid, and water with 0.1% formic acid. Forty-eight fractions were collected from a twenty minutes gradient of solvent from 15% methanol to 95% methanol, and were analyzed for antibacterial content on soft agar lawns of each of a Gram negative indicator strain, Escherichia coli, and a Gram positive indicator strain, Bacillus subtilis.\nFurther, 10 μL fraction volumes of each fraction were injected into a Waters Xevo G2-S Q-TOF LCMS system for further analytical separation and mass identification.\nFraction 28 of each of the GBL and the control extracts were each analyzed by LC-MS-TOF.\nFraction 41 of each of the GBL and the control extracts were each analyzed by LC-MS-TOF. […] Fraction 41 was subjected to UV chromatogram of diode array HPLC detector analysis. Again at prominent peak at 3.83 was observed. This material was determined to be undecylprodigiosin by mass chromatogram shown in FIG. 25, which has an observed mass of 393.27 and a calculated mass of 394.25."}, "S. glaucescens": {"tested_on": "S. glaucescens", "assay": "Principal component analysis of secondary metabolites of S. glaucescens small scale fermentations with GBLs", "type": "cell-based", "details": "for induction of secondary metabolite production: S. glaucescens fermented in SMM medium, LC-MS data, versus untreated control (FIG. 17)", "description": "S. glaucescens cells were grown in 3 mL cultures under 96 different conditions of medium, GBL choice, and GBL concentration. Each GBL solution was added to a tube in each of the following concentrations: 0.2 μM, 0.8 μM, 4 μM, 20 μM, and 100 μM. Media were a minimal medium SMM or a yeast enriched complex medium R5 (also called R2YE). The GBL indicated in FIG. 17 as PR001 and PR002 are shown in FIG. 16, and have the chemical formulae, respectively: 3-(1-hydroxyethyl)-4-(hydroxymethyl)dihydrofuran-2(3H)-one; and, 3-(1-hydroxyheptyl)-4-(hydroxymethyl)dihydrofuran-2(3H)-one.\nFermentations were incubated in 24-well blocks (CR 424, Enzyscreen B.V., Netherlands) with lids (1221a), and were shaken at 200 rpm for 5 days at 28° C. in an Infors HT incubator (Infors AG, Switzerland). For analysis, a C18 SPE-IT tip (57234-U from Sigma-Aldrich) was added to each fermentation which were further shaken at 400 rpm for one hour. Tips were removed and rinsed in deionized water, and were analyzed directly or stored for analysis. Analysis was collected at ionsense, Inc. (Saugus, Mass.) vaporized with a DART source at 400 C and 1 mm/s, and mass spectral data collected in a Thermo LTQ. Analysis used Progenesis QI from Nonlinear Dynamics (Waters).\nPrincipal component analysis data of secondary metabolites induced by the GBLs in comparison to control absent GBL are shown in FIG. 17. […] Accordingly, 100 μM GBL was used in large scale fermentions."}, "S. coelicolor [2]": {"tested_on": "S. coelicolor", "assay": "Induction of pigmented antibiotic (actinorhodin) production in S. coelicolor plate cultures spotted with GBLs", "type": "cell-based, Streptomyces coelicolor", "details": "for antibiotic production (dark spot): S. coelicolor SMMS plates spotted with 1-100 μg racemic mixture of I-VII and VB-D at inoculation, observed after 42 hours; for dose dependence of antibiotic production (diameter of dark spot): amount of GBL mixture I-VII and VB-D 1-100 μg; for production of pigmented antibiotics (actinorhodin): S. coelicolor on SMMS plates, 2 μL spot with 16.5-165 μg racemic GBLs X and XI at inoculation, versus control plates without GBL", "description": "The formulas I-VII in FIG. 10 illustrate the structures of the enantiomers in the mixture of GBLs tested for ability to elicit antibiotic production, the results of which are shown in the plates in FIG. 9. […] The mixture of GBLs was added to a pure culture of non-cognate microorganism S. coelicolor. Streptomycete strains were cultured in complex medium R5 or in minimal medium MMS. See Kieser, T. et al., Practical Streptomyces Genetics, John Innes Institute, 2000.\nSpore stock of S. coelicolor was used to inoculate SMMS agar (solid SMM medium) and the spore suspension on the surfaces of the plates was allowed to dry. The GBL amounts were added at the time of inoculation.\nThe two plates in the top of the photograph of FIG. 9 are controls cultures of S. coelicolor. The control plate on the left is a negative control in which no GBL nor vehicle was added. The control plate on the right was contacted with the vehicle only, which was a mixture of methanol and water.\nA racemic mixture of GBLs containing the non-naturally occurring compounds 1-VII and virginiae butenolide-D (VB-D) was synthesized, and an amount of about 500 μg was dissolved in 100 μL of vehicle to yield a 5 mg/ml concentration solution. The plates of the second row from left to right were spotted with 20 μL (100 μg), 10 μL (50 μg), 5 μL (25 μg), and […] of the 10 mg/ml concentration solution, respectively. […] The fifth plate of the third row was spotted with 2 μL (1 μg) of a 1:10 dilution of the 10 mg/ml concentration solution.\nFIG. 12 is a photograph of SMMS (supplemented minimal media solid) plates inoculated with a spore stock of S. coelicolor streaked to cover the surface of the medium in the plate. At the time of inoculation, 2 μL of a racemic solution containing each amount of a dilution of the racemic GBLs having formulas X and XI were deposited in the center of a plate. Plate 1a was spotted with 2 μL of a solution containing 16.5 μg of GBLs X and XI. Plates 2a and 2b were spotted with 2 μL of a solution containing 33 μg of GBLs X and XI. Plate 3a was spotted with a solution containing 49.5 μg of GBLs X and XI. Plates 4a and 4b were spotted with a solution containing 66 μg of GBLs X and XI. Plates 5a, 6a, 7a, were spotted with solutions containing 99 μg, 132 μg, and 165 μg of GBLs X and XI, respectively. Racemic mixture GBLs were present in equal molar amounts. […] No pigment production was observed on the control plates shown in FIG. 7 not contacted with GBLs."}, "[3]": {"details": "listed as synthetic non-cognate GBL"}},
  "note": "Entries after “also recorded” stand apart in the source; their conditions may differ.",
  "data": [
    {"smiles": "CCCCCCC(O)C1C(=O)OCC1CO", "note": "(single isomer, unassigned) [3-(1-hydroxyheptyl)-4-(hydroxymethyl)dihydrofuran-2(3H)-one]", "values": [
      {"measurement": "Desferrioxamine B production", "setting": "S. coelicolor [1]", "value": "induced"},
      {"measurement": "Desferrioxamine B production", "setting": "S. coelicolor [1]; [3]", "value": "substantially enhanced or even induced"},
      {"measurement": "Desferrioxamine E production", "setting": "S. coelicolor [1]", "value": "induced"},
      {"measurement": "Desferrioxamine E production", "setting": "S. coelicolor [1]; [3]", "value": "substantially enhanced or even induced"},
      {"measurement": "streptorubin B production", "setting": "S. coelicolor [1]", "value": "induced"},
      {"measurement": "streptorubin B production", "setting": "S. coelicolor [1]; [3]", "value": "substantially enhanced or even induced"},
      {"measurement": "undecylprodigiosin production", "setting": "S. coelicolor [1]", "value": "induced"},
      {"measurement": "undecylprodigiosin production", "setting": "S. coelicolor [1]; [3]", "value": "substantially enhanced or even induced"},
      {"measurement": "production of unknown compound (peak at 1.84)", "setting": "S. coelicolor [1]; fraction 28, versus untreated control", "value": "induced"},
      {"measurement": "induction of secondary metabolite production", "setting": "S. glaucescens", "value": "induction of secondary metabolite production"},
      {"measurement": "antibiotic production (dark spot)", "setting": "S. coelicolor [2]; listed as VB-D and seven enantiomer GBLs thereof having the formulas I-VII", "value": "production of the blue antibiotic, actinorhodin, and red prodiginies"},
      {"measurement": "antibiotic production (dark spot)", "setting": "S. coelicolor [2]; listed as compounds 1-VII and virginiae butenolide-D (VB-D)", "value": "produced antibiotic"},
      {"measurement": "antibiotic production (dark spot)", "setting": "S. coelicolor [2]; listed as mixture of GBLs", "value": "production of an antibacterial activity was elicited"},
      {"measurement": "antibiotic production", "setting": "S. coelicolor [2]; S. coelicolor SMMS plates with racemic mixture of I-VII and VB-D, after 24 hours", "value": "No antibiotic production was observed"},
      {"measurement": "dose dependence of antibiotic production (diameter of dark spot)", "setting": "S. coelicolor [2]; S. coelicolor plates, listed as VB-D and seven enantiomer GBLs thereof having the formulas I-VII", "value": "monotonic dose-dependent response"},
      {"measurement": "dose dependence of antibiotic production (diameter of dark spot)", "setting": "S. coelicolor [2]; S. coelicolor plates, listed as compounds 1-VII and virginiae butenolide-D (VB-D)", "value": "dose-dependent monotonically"}
    ]},
    {"smiles": "CCCCCCC(=O)C1C(=O)OCC1CO", "note": "(stereo not drawn) [GBLs X and XI]", "values": [
      {"measurement": "time of induction of production of the pigmented antibiotics", "setting": "S. coelicolor [2]; S. coelicolor SMMS plates contacted with racemic GBLs X and XI", "value": "early induction"},
      {"measurement": "production of pigmented antibiotics (actinorhodin)", "setting": "S. coelicolor [2]", "value": "pigmented antibiotic is produced only in response to treatment; also recorded: increased production of pigmented antibiotics"},
      {"measurement": "production of pigmented antibiotics (actinorhodin)", "setting": "S. coelicolor [2]; listed as X and XI", "value": "production of the purple antibiotic, actinorhodin"},
      {"measurement": "dose dependence of antibiotic production", "setting": "S. coelicolor [2]; S. coelicolor plates, increasing amount of GBLs X and XI (FIG. 3)", "value": "dose-dependent increase in antibiotic production"}
    ]},
    {"smiles": "CC(O)C1C(=O)OCC1CO", "note": "(stereo not drawn) [3-(1-hydroxyethyl)-4-(hydroxymethyl)dihydrofuran-2(3H)-one]", "values": [
      {"measurement": "distinction from control secondary metabolites produced absent GBL (principal component analysis)", "setting": "S. glaucescens; S. glaucescens 3 mL cultures, 5 days, 0.2-100 μM GBL", "value": "greatest distinction from control"},
      {"measurement": "induction of secondary metabolite production", "setting": "S. glaucescens", "value": "induction of secondary metabolite production"},
      {"measurement": "dose dependence of induction of secondary metabolites", "setting": "S. glaucescens; S. glaucescens, GBL 0.2, 0.8, 4, 20, 100 μM", "value": "in a dose-dependent manner"},
      {"measurement": "concentration of maximal distinction from control", "setting": "S. glaucescens; S. glaucescens, principal component analysis", "value": 100, "unit": "µM"}
    ]}
  ]
}
